The values below come from PMC11117541, “The Truncated Peptide AtPEP1^(9–23) Has the Same Function as AtPEP1^(1–23) in Inhibiting Primary Root Growth and Triggering of ROS Burst” (Antioxidants, 2024).

Assay [1] has as its system shoot (rosette) of Arabidopsis seedlings. Kind of assay: Shoot growth, diameter of rosettes (Figure S1). The format is in vivo, Arabidopsis thaliana. As to conditions: for Mean diff, A2 - B2, diameter of rosettes: two-way ANOVA output, by table order A = mock, B = peptide, row 2 = Day 4.
Assay [2] relates to root tip cells of Arabidopsis seedlings. As to the kind of experiment: Root tip morphology, generation of root hairs. As to conditions: peptide for 4 days, up to 500 nM, n = 20. The format is in vivo, Arabidopsis thaliana. As to the method:
(§1) Five-day-old seedlings were transferred from 1/2 MS medium to 1/2 MS medium supplemented with or without elicitor for four days. The transferred seedlings were photographed every day for a total of four days. The primary root length was measured using ImageJ software (V 1.8.0). After four days of elicitor treatment, the root tips of seedlings were observed by microscope and the fluorescence from root tip cells of GFP tag seedlings were excited with a 488 nm laser. Emission was detected between 495 and 550 nm. The images were acquired with an OLYMPUS FV10-MCPUS confocal laser scanning microscope. Images were processed using LSM image examiner software (FV10-ASW3.1) and Adobe Photoshop CS4 version 11.0.2 (Adobe Systems, San Jose, CA, USA).

Assay [3] has as its system DR5::GFP (auxin maxima in root tips). As to the kind of experiment: DR5::GFP reporter for auxin maxima in root tips. The class given is in vivo, Arabidopsis thaliana. As to conditions: 500 nM peptide, four days, confocal microscopy, n = 20, one-way ANOVA.
Source text: (§2) All plants used in this study are of the Arabidopsis thaliana accession Columbia-0 (Col-0) background, including the wild-type, mutant line pepr1-2pepr2-2 (pepr1/2, AT1G73080 and AT1G17750) and transgenic lines expressing WOX5::GFP (AT3G11260) and DR5::GFP [35]. DR5 was created by petforming site-directed mutations in a natural composite auxin response element (AuxRE) found in the soybean GH3 promoter. DR5 consisted of tandem direct repeats of 11 bp (CCTTTTGTCTC)
as §1

Assay [4] concerns WOX5::GFP (quiescent center). Kind of assay: WOX5::GFP reporter in quiescent centre of root tips. The format is in vivo, Arabidopsis thaliana. As to conditions: 500 nM peptide, four days, confocal microscopy, n = 20.
Source text: as §2, §1

The test system of assay [5] is ROS burst in Arabidopsis leaves (Col-0). Kind of assay: ROS burst, luminol dependent assay in Col-0 leaves. The format is cell-based, Arabidopsis thaliana. As to conditions: for concentration at which ROS burst is triggered: Col-0 leaf pieces, luminol L-012/HRP, luminescence recorded 30 min. The procedure:
The measurement of ROS burst was carried out using a luminol dependent assay. Briefly, leaf samples were cut into small pieces and placed in a 96-well plate containing 0.1 mL reaction solution (2 µg/mL horseradish peroxidase, 200 µM luminol L-012). Luminescence signal was immediately measured upon the addition elicitor peptides and recorded for a period of 30 min. The total relative light units (RLUs) measured within a 15 min time was plotted.

Assay [6] deals with primary root growth of Arabidopsis thaliana Col-0 seedlings. The format is in vivo. As to conditions: n = 20; for inhibitory effect on primary root growth (in words): different concentrations up to 500 nM, 4 days; for concentration at which primary root growth is inhibited: five-day-old Col-0 seedlings transferred to 1/2 MS with peptide, up to 4 days. As to the method:
For sterile seedlings, the seeds were first surface-sterilized with 75% ethanol twice. Then, after cold treatment at 4 °C for 2 days, the seeds were germinated on 1/2 Murashige-Skoog (MS) medium supplemented with 0.8% agar and 1% sucrose. For four-week-old plants, the seeds after cold treatment at 4 °C for 2 days were grown in a 1:1 mixture of sand: humus. Both growth environments were carried out in a growth cabinet with 12 h of light, a temperature of 22 °C, and 60% humidity.
as §1

Where a SMILES comes first, the peptide text is derived from it.

Take `CC(C)[C@H](NC(=O)[C@H](CCCCN)NC(=O)[C@H](CCC(=O)O)NC(=O)[C@H](CCCCN)NC(=O)CNC(=O)[C@H](CCCNC(=N)N)NC(=O)[C@H](CCC(N)=O)NC(=O)[C@@H](N)CCCCN)C(=O)N[C@@H](CO)C(=O)N[C@@H](CO)C(=O)NCC(=O)N[C@@H](CCCNC(=N)N)C(=O)N1CCC[C@H]1C(=O)NCC(=O)N[C@@H](CCC(N)=O)C(=O)N[C@@H](Cc1c[nH]cn1)C(=O)N[C@@H](CC(N)=O)C(=O)O` [AtPEP1^(7–23)] (H-KQRGKEKVSSGRPGQHN-OH; N-terminus and C-terminus assumed): the “Mean diff, A2 - B2, diameter of rosettes” value in assay [1] came to 0.1995. The “generation of root hairs / maturation of root tip cells (in words)” value in assay [2] is on record as “more efficient than AtPEP1^(1–23)”. In assay [3], the “maximum levels of auxin in root tips (DR5::GFP fluorescence) compared with control” value (“maximum levels of auxin … compared with control” below) is “significantly reduced”. Besides, the “WOX5 expression (WOX5::GFP signaling width) compared with control” value (“WOX5 expression … compared with control” for short) in assay [4] is reported as “increase in WOX5 expression”. Besides, the “concentration at which ROS burst is triggered” value in assay [5] (n = 4) is 10 nM.
For “AtPEP1^(9–23): truncating eight amino acids from the N-terminus of AtPEP1(1–23) (RGKEKVSSGRPGQHN; Elicitor peptide 1; UniProt Q9LV87 78-92, looked up, fragment)”, in that order: 0.1045, “more efficient than AtPEP1^(1–23)”, “significantly reduced”, “increase in WOX5 expression” and 10 nM.
With “AtPEP1^(13–23): truncating 12 amino acids from the N-terminus of AtPEP1(1–23) (KVSSGRPGQHN; Elicitor peptide 1; UniProt Q9LV87 82-92, looked up, fragment)”, the “inhibitory effect on primary root growth (in words)” value in assay [6] is reported as “did not show an obvious inhibitory effect”. For the same compound, the “inhibitory effect on the shoot (in words)” value in assay [1] (Figure S1, Table S7) was “does not inhibit”. Further, the “Mean diff, A2 - B2, diameter of rosettes” value in assay [1] worked out at 0.03538. Besides, the “generation of root hairs / maturation of root tip cells (in words)” value in assay [2] is recorded as “did not promote the generation of root hairs”. For the same compound, the “maximum levels of auxin … compared with control” value in assay [3] was “did not show significant changes”. Besides, the “concentration at which ROS burst is triggered” value in assay [5] (n = 4) is 10 nM.
“AtPEP1^(1–23): plant elicitor peptide 1 (PEP1) from Arabidopsis thaliana, composed of 23 amino acids, immune elicitor (ATKVKAKQRGKEKVSSGRPGQHN; Elicitor peptide 1; UniProt Q9LV87 70-92, looked up) [reference compound]”: in assay [6], the “concentration at which primary root growth is inhibited” value is 50 nM. Besides, the “concentration that completely inhibited the primary root growth” value in assay [6] (five-day-old Col-0 seedlings, 4 days on peptide medium) was determined as 500 nM. In addition, the “Mean diff, A2 - B2, diameter of rosettes” value in assay [1] is listed as 0.05081. For the same compound, the “generation of root hairs / maturation of root tip cells (in words)” value in assay [2] is “promoted the generation of root hairs”. In assay [3], the “maximum levels of auxin … compared with control” value is listed as “significantly reduced”. The “WOX5 expression … compared with control” value in assay [4] was “increase in WOX5 expression”. Moreover, in assay [5] (10 nM peptide), the “total ROS within 15 min compared to the control group” value was “no significant difference”. Besides, the “concentration at which ROS burst is triggered” value in assay [5] (n = 4) amounted to 10 nM. In addition, in assay [5] (total RLU within 15 min, one-way ANOVA, n = 4), the “concentration at which total ROS within 15 min was significantly higher than the control” value is reported as “greater than or equal to 100 nM”.
In the case of “AtPEP1^(5–23): truncated peptide of AtPEP1(1–23), residues 5–23 (KAKQRGKEKVSSGRPGQHN; Elicitor peptide 1; UniProt Q9LV87 74-92, looked up, fragment)”, in assay [1], the “Mean diff, A2 - B2, diameter of rosettes” value came out at 0.1141. Further, the “generation of root hairs / maturation of root tip cells (in words)” value in assay [2] is “more efficient than AtPEP1^(1–23)”. Moreover, the “maximum levels of auxin … compared with control” value in assay [3] was “significantly reduced”. The “WOX5 expression … compared with control” value in assay [4] is listed as “increase in WOX5 expression”. The “concentration at which ROS burst is triggered” value in assay [5] (n = 4) is on record as 10 nM.
Turning to “AtPEP1^(11–23): truncated peptide of AtPEP1(1–23), residues 11–23 (KEKVSSGRPGQHN; Elicitor peptide 1; UniProt Q9LV87 80-92, looked up, fragment)”, in assay [6], the “inhibitory effect on primary root growth (in words)” value was “lower than that of AtPEP1^(1–23)” and the “concentration at which primary root growth is inhibited” value worked out at 5 nM. Further, the “Mean diff, A2 - B2, diameter of rosettes” value in assay [1] is listed as 0.1293. The “generation of root hairs / maturation of root tip cells (in words)” value in assay [2] is reported as “did not promote the generation of root hairs”. Further, the “maximum levels of auxin … compared with control” value in assay [3] is on record as “significantly reduced”. The “WOX5 expression … compared with control” value in assay [4] is recorded as “increase in WOX5 expression”. Further, in assay [5] (n = 4), the “concentration at which ROS burst is triggered” value is on record as 10 nM.
Take “AtPEP1^(9–22): C-terminal truncated peptide created from AtPEP1(9–23) (RGKEKVSSGRPGQH; Elicitor peptide 1; UniProt Q9LV87 78-91, looked up, fragment)”: in assay [1], the “Mean diff, A2 - B2, diameter of rosettes” value is recorded as -0.02327. Also, in assay [2], the “generation of root hairs / maturation of root tip cells (in words)” value is “did not promote the generation of root hairs”. Moreover, the “maximum levels of auxin … compared with control” value in assay [3] is recorded as “did not show significant changes”. Moreover, in assay [5] (n = 4), the “concentration at which ROS burst is triggered” value is 100 nM.
